Measured values published in US7713960B2, “Inhibition of the Raf/Mek/P-Erk pathway for treating cancer” (University of South Florida, priority 2005, dated 2010).
Counter-ions that a name gives are not always drawn.

Experiments:
MDA-MB-231 cells = assay: Immunohistochemistry of MDA-MB-231 xenograft tumors (P-Erk 1/2, Tunel, Ki-67); type: in vivo, nude mice; details: 75 mpk/day, tumors removed on day 12
Source text: Anti-tumor activity in nude mouse xenograft model—Female athymic nude (nu/nu) mice, 5-6 weeks old, were purchased from Charles River (Wilmington, Mass.) and allowed to acclimate in the animal facility for one week. After harvesting, A-549, SNB-19, ACHN, and HCT-116 cells were, resuspended in sterile PBS, and injected s.c. into the right and left flanks (10×10^6 cells per flank) of the mice as previously described (Sun et al., 2005). For MDA-MB-231, cells were harvested and resuspended in PBS (10×10^6 cells per 50 μl) and an equal volume of Matrigel (BD Biosciences, San Jose, Calif.). 100 μl of MDA-MB-231 cells in PBS/Matrigel were injected s.c. into the mammary fat pads between the 2nd and 3rd nipples on each side of the mice. Once the tumors reached approximately 200-300 mm^3 the mice were randomized and treated i.p. with 0.1 ml vehicle (PBS) or ARA-211. Each treatment group consisted of five mice (2 tumors per mouse, a total of 10 tumors). The tumor volumes were determined by measuring the length (l) and width (w) and calculating the volume (V=w^2l/2). Statistical significance between the control and treated animals was determined using a student's t test. Immunohistochemisty (IHC) and slide quantitation—Upon completion of the xenograft study, mice were euthanized and the tumors were removed and fixed in 10% buffered formalin for at least 24 hours. […] The IHC slides were analyzed at the Analytical Microscopy Core facility of the H. Lee Moffitt Cancer Center & Research Institute. The Ariol SL-50 automated image analysis system (Applied Imaging, Santa Clara, Calif.) was used for quantitation of each slide as previously described (Jiang et al., 2004). Briefly, high-resolution digital pictures were taken of the entire stained area of each slice of tumor tissue for automatic staining quantitation. […] Each slide analyzed consisted of 54,000 to 160,000 cells analyzed depending on the size of the tumor when resected. Significance of the quantitation was analyzed by a two-tailed student's t-test.

SF-539 cells = assay: Total cellular cAMP measurement, SF-539; type: cell-based, human
Experimental: Total cellular cAMP measurement—The measurement of total cellular cAMP was done using a cAMP Biotrak ™ Enzymeimmunoassay (EIA) system (Amersham Biosciences, Piscataway, N.J.) according to the manufacturer's protocol. Briefly, 2000 cells were plated into each well of a 96 well plate. The next day cells were treated with increasing concentrations of ARA-211 or with vehicle for one hour. Alternatively, MDA-MB-231 cells were pre-treated with antagonists to the α1 (Prazosin, Sigma), α2 (Yohimbine, Sigma), β1 (Metoprolol, Sigma), and β2 (ICI 118.551, Sigma) adrenergic receptors at 100 nM for 15 minutes followed by treatment with 10 μM ARA-211 for 45 minutes. Cells were then lysed directly in the wells using the supplied lysis buffer. The lysate was transferred to a 96-well cAMP ELISA plate, and results were quantified using a Wallac Victor 2 plate reader.

A-549 cells = assay: Nude mouse xenograft model, A-549 (s.c.); type: in vivo, nude mice; details: A-549 xenograft; i.p. 75 mpk/day
Source text: Anti-tumor activity in nude mouse xenograft model—Female athymic nude (nu/nu) mice, 5-6 weeks old, were purchased from Charles River (Wilmington, Mass.) and allowed to acclimate in the animal facility for one week. After harvesting, A-549, SNB-19, ACHN, and HCT-116 cells were, resuspended in sterile PBS, and injected s.c. into the right and left flanks (10×10^6 cells per flank) of the mice as previously described (Sun et al., 2005). For MDA-MB-231, cells were harvested and resuspended in PBS (10×10^6 cells per 50 μl) and an equal volume of Matrigel (BD Biosciences, San Jose, Calif.). 100 μl of MDA-MB-231 cells in PBS/Matrigel were injected s.c. into the mammary fat pads between the 2nd and 3rd nipples on each side of the mice. Once the tumors reached approximately 200-300 mm^3 the mice were randomized and treated i.p. with 0.1 ml vehicle (PBS) or ARA-211. Each treatment group consisted of five mice (2 tumors per mouse, a total of 10 tumors). The tumor volumes were determined by measuring the length (l) and width (w) and calculating the volume (V=w^2l/2). Statistical significance between the control and treated animals was determined using a student's t test.

Mek-1 = molecular target: T1, Mek-1 (Homo sapiens, UniProt Q02750); assay: In vitro kinase assay, Mek-1 immunoprecipitated from MDA-MB-231 cells; type: biochemical; details: immunoprecipitated kinase treated in vitro, 10 μM
T1 construct: c-Raf-1 and Mek-1, immunoprecipitated from MDA-MB-231 cells; endogenous in cells; host or cells: MDA-MB-231
Experimental: In Vitro Kinase Assays—MDA-MB-231 cells (2×10^6) were lysed for 30 minutes at 4° C. in RIPA-150 buffer (10 mM Tris pH 7.5, 150 mM NaCl, 10% glycerol, 5 mM EDTA, 1% Triton X-100, 0.1% SDS, 100 μM sodium orthovanadate, 1 μM aprotinin, 10 μM leupeptin, 10 μM antipain). Cell debris was pelleted at 13000 rpm for 15 minutes at 4° C. and the lysate was rocked overnight with 10 μg of either c-Raf or MEK antibodies (Santa Cruz Biotechnologies, Santa Cruz, Calif.). 25 μl of protein A/G PLUS agarose (Santa Cruz Biotechnology) was then added and rocked for 4 hours at 4° C. Samples were spun at 2000 rpm for 5 minutes to collect the agarose beads, which were then washed four times with lysis buffer. On the final wash each pellet was divided into 5. […]

T1 sequence (Q02750 whole entry): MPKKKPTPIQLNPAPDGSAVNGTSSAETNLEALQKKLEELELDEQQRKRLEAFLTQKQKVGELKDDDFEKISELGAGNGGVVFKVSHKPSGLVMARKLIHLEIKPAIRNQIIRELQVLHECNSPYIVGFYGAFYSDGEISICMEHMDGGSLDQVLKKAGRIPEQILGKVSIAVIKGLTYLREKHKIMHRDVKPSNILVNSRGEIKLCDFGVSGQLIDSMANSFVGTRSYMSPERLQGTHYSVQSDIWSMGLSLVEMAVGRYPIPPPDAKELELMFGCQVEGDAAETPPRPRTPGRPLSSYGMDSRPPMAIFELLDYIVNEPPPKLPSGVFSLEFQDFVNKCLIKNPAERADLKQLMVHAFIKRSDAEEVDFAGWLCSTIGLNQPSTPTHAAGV

- cAMP (Fold Induction) (SF-539 cells): 13.1 ± 3.0 Fold
- in vitro Mek-1 kinase activity (Mek-1): did not inhibit
SMILES: CC(C)(C)NCC(O)c1ccc(O)c(CO)n1 (stereo not drawn) [ARA-211, 2-hydroxymethyl-3-hydroxy-6-(1-hydroxy-2-tert-butylaminoethyl) pyridine, dihydrochloride]
- P-Erk 1/2 levels in tumors (IHC) (MDA-MB-231 cells): suppresses P-Erk 1/2 levels
- apoptosis in tumors (Tunel) (MDA-MB-231 cells): induces apoptosis
- tumor cell proliferation in tumors (Ki-67) (MDA-MB-231 cells): inhibits tumor cell growth
- growth of tumors (A-549 cells): is not affected
